Counter-ions that a name gives are not always drawn.
Columns and labels:
[1] = target: Cdc7 (Homo sapiens, UniProt O00311); assay: Cdc7 cell pharmacodynamics assay Method 3: pS53MCM2 levels in SW48 cells; format: cell-based; design: endogenous in cells; host or cells: SW48; details: 6 hours treatment, read-out: Biomarker Method 3 (pEC50) (converted)
Description: This protocol describes a method to investigate the inhibition of Cdc7 activity by measuring pS53MCM2 levels in cells, after treatment with compounds.
• SW48 cells • RPMI 1640 (Sigma, R5886) • 10% FCS (Sera Laboratories International Ltd, EU000F Batch: 108005) • 100× L-Glutamine (Invitrogen, 25030-024) • D-Glucose Solution (10%) (Sigma, G8644) • HEPES Buffer Solution (Sigma, 83264) • Sodium Pyruvate (Sigma, S8636) • PBS (Fisger, BP399-4) • Trypsin/EDTA (Invitrogen 25300-054) • 2% BSA in PBS • Cell Extraction Buffer (Invitrogen FNN0011) • Protease inhibitor cocktail (Sigma P-2714) • PMSF 0.3M stock in DMSO (Sigma P7626) • Antibody—rabbit pMCM2 Ser53 (Bethyl #A300-756A) • Antibody—goat MCM2 (Bethyl #A300-122A) • Antibody—goat Anti Rabbit IgG HRP (Perbio Science UK Ltd 31462) • SuperSignal ELISA Pico Chemiluminescent Substrate (Perbio Science UK Ltd 37070) Method • Plate 30,000 SW48 cells per well in standard TC treated 96 well plate in 100 μL complete RPMI 1640 medium. • Allow cells to settle overnight in incubator set at 37° C. and 5% CO2. • Cell treatment: prepare a 384 well plate containing 80 μl PBS/well. The PBS should be at room temperature—to be referred to as intermediate plate. Transfer 2 μL of compound from mother plate to intermediate (daughter plate) 1:40 dilution, then 5 μL intermediate to cell (daughter) plate. • Once all cells are treated place the cells back to the incubator and incubate for 6 hours. • Dilute the capture antibody (total MCM2 #A300-122A) 1 in 250 in the required volume of PBS (5 mL per assay plate, plus 5 mL for dead volume) and add 50 μL to each well of a Hybond plate. Seal the plate and incubate at room temperature for a minimum of 2 hours. • Defrost aliquot of Invitrogen Cell Extraction Buffer (FNN0011) on ice and supplement with appropriate volume of both Sigma protease inhibitor cocktail (P-2714) and PMSF (final cone 1 mM from a 1 M stock in DMSO). • After the 6 hour cell treatment time, tap out the media from the assay plates and place them in the −80° C. freezer for at least 5 minutes. • Remove plates from freezer and add 20 μL of ice cold complete lysis buffer, with the multidrop. Incubate cells for 30 minutes at 4° C. • Add 80 μL per well 2% BSA. • Flick out the remaining liquid from the capture plate and transfer 80 μL from the lysis plate to the same wells in the capture/ELISA plate, using the Biomek. Cover with plate seal and incubate plates overnight at 4° C. • Wash plates with PBS, remove any residual remaining liquid and add 50 μL per well of pMCM2 Ser53 antibody (#A300-756A) diluted 1 in 100 in 2% BSA. Cover plate and incubate at room temperature for 2 hours with gentle shaking. • Wash plates with PBS, remove any residual remaining liquid and Incubate with 50 μL goat anti rabbit antibody (1 in 800 dilution in 2% BSA), for 1 hour at room temperature. • Wash plates with PBS, remove any residual remaining liquid and add 50 μL mixed SuperSignal Pico substrate. • Incubate each plate for 5 minutes at room temperature shielding the plates from direct light (with a cover plate). Read plates with the luminescent detection. Results

[2] = target: Cdc7/ASK (Homo sapiens, UniProt O00311); assay: Cdc7 biochemical assay Method 3: off-chip mobility shift assay (MSA) run at Carna Biosciences; design: purchased Carna Biosciences; host or cells: baculovirus expression system; details: MCM2 peptide 1000 nM, ATP 5 μM, 5 hours, read-out: Biochemical method 3 (pIC50) (converted)
Sequence of Cdc7/ASK (O00311 whole entry): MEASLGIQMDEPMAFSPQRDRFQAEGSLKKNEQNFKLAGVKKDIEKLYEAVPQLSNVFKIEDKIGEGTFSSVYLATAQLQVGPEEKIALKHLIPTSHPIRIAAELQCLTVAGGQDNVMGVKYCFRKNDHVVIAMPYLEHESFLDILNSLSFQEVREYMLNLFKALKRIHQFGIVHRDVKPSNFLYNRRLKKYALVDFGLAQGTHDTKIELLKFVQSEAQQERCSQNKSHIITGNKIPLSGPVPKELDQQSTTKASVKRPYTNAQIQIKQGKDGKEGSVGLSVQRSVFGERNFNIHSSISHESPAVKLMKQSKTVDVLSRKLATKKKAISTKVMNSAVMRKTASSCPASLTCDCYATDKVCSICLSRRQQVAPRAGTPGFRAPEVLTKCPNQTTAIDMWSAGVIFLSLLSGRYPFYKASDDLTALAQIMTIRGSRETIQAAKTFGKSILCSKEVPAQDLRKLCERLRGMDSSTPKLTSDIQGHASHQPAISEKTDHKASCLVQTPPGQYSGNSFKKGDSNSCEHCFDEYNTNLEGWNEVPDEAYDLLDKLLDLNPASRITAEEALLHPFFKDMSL
Sequence of Cdc7/ASK (Q9UBU7 whole entry partner): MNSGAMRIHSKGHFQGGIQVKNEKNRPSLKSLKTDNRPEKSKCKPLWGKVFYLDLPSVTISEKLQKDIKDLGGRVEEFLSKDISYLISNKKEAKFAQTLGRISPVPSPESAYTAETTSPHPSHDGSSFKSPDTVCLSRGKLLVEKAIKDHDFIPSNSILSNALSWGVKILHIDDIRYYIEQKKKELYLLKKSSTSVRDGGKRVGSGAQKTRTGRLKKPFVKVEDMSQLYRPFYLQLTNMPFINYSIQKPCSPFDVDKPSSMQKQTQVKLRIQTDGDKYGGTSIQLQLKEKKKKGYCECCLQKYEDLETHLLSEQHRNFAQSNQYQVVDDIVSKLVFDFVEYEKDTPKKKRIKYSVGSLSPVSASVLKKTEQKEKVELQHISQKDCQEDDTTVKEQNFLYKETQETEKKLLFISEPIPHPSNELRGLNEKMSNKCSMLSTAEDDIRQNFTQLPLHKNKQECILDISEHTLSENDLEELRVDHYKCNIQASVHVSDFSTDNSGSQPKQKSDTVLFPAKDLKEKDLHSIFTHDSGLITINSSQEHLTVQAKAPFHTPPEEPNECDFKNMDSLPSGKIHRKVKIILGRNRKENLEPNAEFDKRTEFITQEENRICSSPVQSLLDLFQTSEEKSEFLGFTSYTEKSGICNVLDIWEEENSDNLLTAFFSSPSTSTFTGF
Procedure: This protocol describes a method for assaying Cdc7/ASK for activity. The assay is an off-chip mobility shift assay (MSA) run at Carna Biosciences.
The test compound was dissolved in and diluted with dimethylsulfoxide (DMSO) to achieve 100-fold higher concentration which was specified by the sponsor. Then the solution was further 25-fold diluted with assay buffer to make the final test compound solution. Reference compounds for assay control were prepared similarly. 2. Kinase Cdc7/ASK: Full-length human Cdc7 [1-574(end) amino acids of accession number NP_003494.1] was co-expressed as N-terminal GST-fusion protein (92 kDa) with Dbf4(ASK) [1-674(end) amino acids of accession number NP_006707.1] using baculovirus expression system. GST-Cdc7 was purified by using glutathione sepharose chromatography. 3. Assay Reagents and Procedures Off-Chip Mobility Shift Assay (MSA) • 1) The […] were prepared with assay buffer (20 mM HEPES, 0.01% Triton X-100, 1 mM DTT, pH 7.5) and mixed and incubated in a well of polypropylene 384 well microplate for 5 hours at room temperature. • 2) […] of Termination Buffer (QuickScout Screening Assist MSA; Carna Biosciences) was added to the well. • 3) The reaction mixture was applied to LabChip system (Perkin Elmer), and the product and substrate peptide peaks were separated and quantitated. • 4) The kinase reaction was evaluated by the product ratio calculated from peak heights of product (P) and substrate (S) peptides (P/(P+S)). 4. Reaction Conditions
5. Data Analysis The readout value of reaction control (complete reaction mixture) was set as a 0% inhibition, and the readout value of background (Enzyme(−)) was set as a 100% inhibition, then the percent inhibition of each test solution was calculated. IC50 value was calculated from concentration vs. % Inhibition curves by fitting to a four parameter logistic curve. Results

Sequence of Cdc7 (O00311 whole entry): as the sequence (O00311 whole entry) above
Sequence of Cdc7 (Q9UBU7 whole entry partner): as the sequence (Q9UBU7 whole entry partner) above

Row | EC50 [1] [nM] | IC50 [2] [nM] | SMILES
1 | 389 | 3.8 | C[C@@H]1COCCN1c1nc(-c2cn[nH]c2Cl)[nH]c(=O)c1Cl [Compound 42, 5-chloro-2-(5-chloro-1H-pyrazol-4-yl)-4-[(3R)-3-methylmorpholin-4-yl]-1H-pyrimidin-6-one]
2 | 16.6 | 3.39 | O=c1[nH]c(-c2scnc2Cl)nc(N2CCNCC2C(F)F)c1Cl (single isomer, unassigned) [Compound 69, 5-chloro-2-(4-chlorothiazol-5-yl)-4-[2-(difluoromethyl)piperazin-1-yl]-1H-pyrimidin-6-one hydrochloride]
3 | 724 | 6.46 | Cc1ncsc1-c1nc(N2CCNCC(F)(F)C2)c(Cl)c(=O)[nH]1 [Compound 57, 5-chloro-4-(6,6-difluoro-1,4-diazepan-1-yl)-2-(4-methylthiazol-5-yl)-1H-pyrimidin-6-one hydrochloride]
4 | 97.7 | 6.03 | O=c1[nH]c(-c2scnc2Cl)nc(N2CCNCC2C(F)F)c1Cl (centres unmarked) [Compound 67, 5-chloro-2-(4-chlorothiazol-5-yl)-4-[2-(difluoromethyl)piperazin-1-yl]-1H-pyrimidin-6-one]
5 | 525 | 5.5 | O=c1[nH]c(-c2scnc2C(F)(F)F)nc(N2CCNCC(F)(F)C2)c1Cl [Compound 63, 5-chloro-4-(6,6-difluoro-1,4-diazepan-1-yl)-2-[4-(trifluoromethyl)thiazol-5-yl]-1H-pyrimidin-6-one]
6 | 4570 | 51.3 | Cc1nocc1-c1nc(N2CCNC[C@H]2C)c(Cl)c(=O)[nH]1 [Compound 49, 5-chloro-2-(3-methylisoxazol-4-yl)-4-[(2R)-2-methylpiperazin-1-yl]-1H-pyrimidin-6-one]
7 | 195 | 3.72 | O=c1[nH]c(-c2cn[nH]c2Cl)nc(N2CCNCC(F)(F)C2)c1Cl [Compound 40, 5-chloro-2-(5-chloro-1H-pyrazol-4-yl)-4-(6,6-difluoro-1,4-diazepan-1-yl)-1H-pyrimidin-6-one hydrochloride]
8 | 1320 | 10.2 | O=c1[nH]c(-c2scnc2Cl)nc(N2CCNCC(F)C2)c1Cl (single isomer, unassigned) [Compound 73, 5-chloro-2-(4-chlorothiazol-5-yl)-4-(6-fluoro-1,4-diazepan-1-yl)-1H-pyrimidin-6-one hydrochloride]
9 | 166 | 4.17 | C[C@@H]1COCCN1c1nc(-c2scnc2Cl)[nH]c(=O)c1Cl [Compound 64, 5-chloro-2-(4-chlorothiazol-5-yl)-4-[(3R)-3-methylmorpholin-4-yl]-1H-pyrimidin-6-one]
10 | 162 | 12.9 | Cc1ncsc1-c1nc(N2CCNCC2C(F)F)c(Cl)c(=O)[nH]1 (centres unmarked) [Compound 61, 5-chloro-4-[2-(difluoromethyl)piperazin-1-yl]-2-(4-methylthiazol-5-yl)-1H-pyrimidin-6-one]
11 | 724 | 7.41 | Cc1ncsc1-c1nc(N2CCOC[C@H]2C)c(Cl)c(=O)[nH]1 [Compound 59, 5-chloro-4-[(3R)-3-methylmorpholin-4-yl]-2-(4-methylthiazol-5-yl)-1H-pyrimidin-6-one]
12 | 1230 | 20 | Cc1ncsc1-c1nc(N2CCNCC2C(F)(F)F)c(Cl)c(=O)[nH]1 (centres unmarked) [Compound 60, 5-chloro-2-(4-methylthiazol-5-yl)-4-[2-(trifluoromethyl)piperazin-1-yl]-1H-pyrimidin-6-one]
13 | 38 | 3.89 | C[C@@H]1CNCCN1c1nc(-c2scnc2Cl)[nH]c(=O)c1Cl [Compound 65, 5-chloro-2-(4-chlorothiazol-5-yl)-4-[(2R)-2-methylpiperazin-1-yl]-1H-pyrimidin-6-one hydrochloride]
14 | 4170 | 44.7 | Cc1nccn1-c1nc(N2CCOC[C@H]2C)c(Cl)c(=O)[nH]1 [Compound 56, 5-chloro-2-(2-methylimidazol-1-yl)-4-[(3R)-3-methylmorpholin-4-yl]-1H-pyrimidin-6-one]
15 | 95.5 | 3.8 | O=c1[nH]c(-c2scnc2Cl)nc(N2CCNCC(F)C2)c1Cl (single isomer, unassigned) [Compound 72, 5-chloro-2-(4-chlorothiazol-5-yl)-4-(6-fluoro-1,4-diazepan-1-yl)-1H-pyrimidin-6-one hydrochloride]
16 | 3630 | 43.7 | C[C@@H]1CNCCN1c1nc(-c2ccnn2C)[nH]c(=O)c1Cl [Compound 50, 5-chloro-4-[(2R)-2-methylpiperazin-1-yl]-2-(2-methylpyrazol-3-yl)-1H-pyrimidin-6-one]
17 | 200 | 6.92 | O=c1[nH]c(-c2scnc2Cl)nc(N2CCNCC2C(F)(F)F)c1Cl (centres unmarked) [Compound 68, 5-chloro-2-(4-chlorothiazol-5-yl)-4-[2-(trifluoromethyl)piperazin-1-yl]-1H-pyrimidin-6-one]
18 | 75.9 | 4.27 | O=c1[nH]c(-c2scnc2Cl)nc(N2CCNCC(F)(F)C2)c1Cl [Compound 66, 5-chloro-2-(4-chlorothiazol-5-yl)-4-(6,6-difluoro-1,4-diazepan-1-yl)-1H-pyrimidin-6-one hydrochloride]
19 | 331 | 7.08 | Cc1ncsc1-c1nc(N2CCNC[C@H]2C)c(Cl)c(=O)[nH]1 [Compound 58, 5-chloro-4-[(2R)-2-methylpiperazin-1-yl]-2-(4-methylthiazol-5-yl)-1H-pyrimidin-6-one]
20 | 324 | 6.76 | O=c1[nH]c(-c2scnc2Cl)nc(N2CCNCC2C(F)F)c1Cl (single isomer, unassigned) [Compound 70, 5-chloro-2-(4-chlorothiazol-5-yl)-4-[2-(difluoromethyl)piperazin-1-yl]-1H-pyrimidin-6-one hydrochloride]
21 | 977 | 21.4 | Cc1ncsc1-c1nc(N2CCNCC(F)C2)c(Cl)c(=O)[nH]1 (centres unmarked) [Compound 62, 5-chloro-4-(6-fluoro-1,4-diazepan-1-yl)-2-(4-methylthiazol-5-yl)-1H-pyrimidin-6-one]
22 | 251 | 5.75 | O=c1[nH]c(-c2scnc2Cl)nc(N2CCNCC(F)C2)c1Cl (racemic) [Compound 71, 5-chloro-2-(4-chlorothiazol-5-yl)-4-(6-fluoro-1,4-diazepan-1-yl)-1H-pyrimidin-6-one hydrochloride]

From patent US11766434B2, “Pyrimidinone derivatives as CDC7 inhibitors” (Cancer Research Technology Limited, priority 2016, dated 2023)
